Reference: patent publication EP2535049A1 (Proyecto de Biomedicina Cima, S.L., priority 2011, dated 2012)
Entries after “also recorded” stand apart in the source; their conditions may differ.

Tests used:
[1] = system: pGSK3β-Ser9; test: Western blot of pGSK3β-Ser9 in hippocampus of J20 mice; format: in vivo; conditions: J20 mice treated for 10 weeks, vs saline
Protocol: (§1) Results were compared with those obtained from age-matched negative littermates (controls). To test the effect of the PDE5 inhibitors in cognition capacity related to aging, a second treatment was carried out using 10-12 month-old non-transgenic (wild type) mice on an inbred C57/B6xSJL genetic background.
(§2) Twenty four hours after the fear conditioning test, animals (n=5, per group) were sacrificed and the brains removed for biochemical studies. The cortex and hippocampus were dissected, homogenized, and processed as described below for subsequent western blot analysis. […]
(§3) Total tissue homogenates were obtained by homogenizing the hippocampus in a cold lysis buffer with protease inhibitors (0.2 M NaCl, 0.1 M HEPES, 10% glycerol, 200 mM NaF, 2 mM Na4P2O7, 5 mM EDTA, 1 mM EGTA, 2 mM DTT, 0.5 mM PMSF, 1 mM Na3VO4, 1 mM benzamidine, 10 µg/ml leupeptin, 400 U/ml aprotinin), centrifuged at 14,000 x g 4 °C for 20 minutes and the supernatant was aliquoted and stored at -80 °C. Total protein concentrations were determined using the BioRad Bradford protein assay (BioRad Laboratories).
(§4) Protein samples were mixed with an equal volume of 2 x Laemmli sample buffer, resolved onto SDS-polyacrylamide gels and transferred to nitrocellulose membrane. […] Quantity OneTM software v.4.6.3 (Bio-Rad) was used for quantification.

[2] = system: synaptophysin; test: Western blot of synaptophysin in hippocampus of J20 mice; format: in vivo; conditions: J20 mice treated for 10 weeks
Protocol: as §1, §2, §3, §4

[3] = system: GluR2/3; test: Western blot of GluR2/3 in hippocampus of J20 mice; format: in vivo; conditions: J20 mice treated for 10 weeks
Protocol: as §1, §2, §3, §4

[4] = system: PSD95; test: Western blot of PSD95 in hippocampus of J20 mice; format: in vivo; conditions: J20 mice treated for 10 weeks
Protocol: as §1, §2, §3, §4

[5] = system: aged wild type animals (C57/b6xSJL); test: Morris water maze in aged wild type animals; format: in vivo, mice; conditions: 5-weeks treatment, 15 mg/Kg orally; aged (12-14-month-old) wild type animals; vs saline
Protocol: Results were compared with those obtained from age-matched negative littermates (controls). […] The MWM test was used to evaluate spatial memory as previously described (Hsiao et al., 1996; Reed et al., 2010; Ricobaraza et al., 2009). After treatments, groups of animals underwent spatial reference learning and memory testing in the MWM. The water maze was a circular pool (diameter 1.2 m) filled with water maintained at 20 °C and made opaque by the addition of non-toxic white paint. Mice were trained for three consecutive days (8 trials/day) swimming to a raised platform (visible-platform). No distal visible cues were present during this phase. The same platform location was used for all visible-platform sessions and was changed for the invisible-platform training (submerged 1 cm beneath the surface) conducted over 8 consecutive days (4 trials/day) with all visible distal cues present in this phase. […] In the probe trials the platform was removed from the pool, and the percentage of time spent in the quadrant where the platform was previously set was recorded. All trials were monitored by a camera above the center of the pool connected to a SMART-LD program (Panlab S.L., Barcelona, Spain) for subsequent analysis of escape latencies, swimming speed, path length and percent time spent in each quadrant of the pool during probe trials. […]

[6] = system: aged wild type animals (C57/b6xSJL); test: Fear conditioning test in aged wild type animals; format: in vivo, mice; conditions: 5-weeks treatment, 15 mg/Kg orally, aged (12-14-month-old) wild type animals, 24h and 7 days after training, vs saline
Protocol: Results were compared with those obtained from age-matched negative littermates (controls). […] After running the MWM, all the animals were trained in the fear conditioning test. The conditioning procedure was carried out in a StartFear system (Panlab S.L.) that allows recording and analysis of the signal generated by the animal movement through a high sensitivity Weight Transducer system. The analogical signal is transmitted to the FREEZING and […] software modules through the load cell unit for recording purposes and posterior analysis in terms of activity/immobility. The conditioning box is housed inside a soundproof chamber, which minimized external stimulation during the conditioning and retention tests. The box was provided with a house light that supplied dim illumination and with a floor grid through which foot shocks could be administered. On training day, the mice were placed in the conditioning chamber for 2 minutes before the onset of a tone at 2800 Hz, 85 dB (conditioned stimulus, CS), which lasted for 30 seconds. The last 2 seconds of the CS was paired with a 0.3 mA foot shock (unconditioned stimulus, US). Thirty seconds after the paired CS-US, mice were returned to their cage. […] Freezing behavior was defined as the lack of movement except for breathing for at least 2 seconds, and was analyzed to give the percentage time freezing during exposure to the chamber. […]

[7] = Kulkarni and Patil 2004; Forgue et al., 2006; cited from earlier work

SMILES	pGSK3β-Ser9 levels [1]	expression levels of synaptophysin [2]	expression levels of GluR2/3 [3]	expression levels of PSD95 [4]	learning ability and memory retention in the MWM [5]	learning ability and memory retention in the FC test [6]	half-life in blood serum [7] [h]
CCCc1nn(C)c2c(=O)[nH]c(-c3cc(S(=O)(=O)N4CCN(C)CC4)ccc3OCC)nc12 [sildenafil]	significantly increased	recovered the low expression levels	recovered the low expression levels	recovered the low expression levels	only observed in the FC test	significant enhancement of memory; also recorded: only observed in the FC test (24h after training)	3.4
CN1CC(=O)N2[C@H](c3ccc4c(c3)OCO4)c3[nH]c4ccccc4c3C[C@@H]2C1=O [tadalafil, (6R-trans)-6-(1,3-benzodioxol-5-yl)-2,3,6,7,12,12a-hexahydro-2-methyl-pyrazino [1',2':1,6] pyrido [3,4-b]indole-1,4-dione]	significantly increased; also recorded: being higher the effect of tadalafil	recovered the low expression levels	recovered the low expression levels	recovered the low expression levels	improved learning ability and memory retention	significant enhancement of memory; also recorded: improved learning ability and memory retention	18
